In patent US20100168420A1, “Taxol Derivatives With Antitumor Activity” (priority 2007, published 2010):
Marks after values point to notes of the source that are not given here.

Legend:
human A549 NSCLC tumors [1] = test: Therapeutic effects of SHR-110008 and Taxotere against xenografts of human A549 NSCLC tumors in nude mice (Test Example 1); conditions: for RTV X ± SD / T/C (%) / T/C (%) (weighing method) / Weight of tumors (g) x ± SD: 14th day; for T/C (%): from RTV; for T/C (%) (weighing method): from weight of tumors; for Weight of tumors (g) x ± SD: weighing method; for TV (X ± SD, mm^3) d0 / Body weight (g) d0: d0: time of the first dosage; for TV (X ± SD, mm^3) dn / Body weight (g) dn: dn: 14th day after the first dosage
Experimental: Numbers of animals: 9 mice in control group, 5 mice in medication administration team.
Animals were adapted in animal house for 1 week and were hypodermic inoculated human A549 NSCLC tumors. After tumors grew to 100-300 mm^3, mice were randomly divided into teams of SHR-110008 and Taxotere(d0). The doses of SHR-110008 were 10 and 16 mg/kg, and the doses of Taxotere were 12 and 19 mg/kg, separately. The route of administration is intravenous injection. SHR-110008(10 mg/kg) and Taxotere (12 mg/kg) were administrated on d0, d4, d8, a total of three times. SHR-110008(16 mg/kg) and Taxotere (19 mg/kg) were administrated on d0, d7, a total of two times. The volume of tumors and weights of the mice were measured for 2-3 times per week. The calculation formula of the volume of tumor (V) is: V=1/2×a×b^2, a: length of tumor, b: width of tumor.

human A549 NSCLC tumors [2] = test: Therapeutic effects of SHR1021-47 against xenografts of human A549 NSCLC tumors in nude mice (Test Example 2); assay type: in vivo, BALB/cA-nude mice; conditions: 12 mg/kg iv, d0, d7
Experimental: Animal species: BALB/cA-nude mice.
Numbers of animals: 12 mice in control group, 6 mice in medication administration team.
Cell culture: Human A549 NSCLC tumor cells were cultured in vitro remaining on logarithmic growth phase.
Transplantation: Take the prepared cells to inoculate subcutaneously to the nude mice.
Inoculation: Take the tumor lump to inoculate in one side of oxter on the condition of asepsis.
Grouping and dose design: Measure the diameter of transplantation tumor by sliding caliper. After tumors grew to 100-250 mm^3, mice were randomly divided into groups of Shr1021-47 (8 mg/kg, 12 mg/kg, 16 mg/kg) and Taxotere (12 mg/kg).
Administration route and time: iv administration. Shr1021-47 and Taxotere were administrated on d0, d7, 2 times in all. Measure the volume of tumor and weigh the mice 2-3 times per week.
Calculate the relative tumor volume (RTV) according to the measurements. The formula is: RTVI=Vt/V0. V0 refers to the volume of tumor on d0; Vt refers to the volume of tumor on every measurement. The index of antitumor activity is T/C(%). The formula is: T/C(%)=TRTV/CRTV×100, TRTV: RTV of treatment group, CRTV: RTV of control group.

[3] = under the suitable dose schedule, conclusion in words
[4] = dn: 14th day after the first dosage

CC(=O)O[C@@]12CO[C@@H]1C[C@H](O)[C@@]1(C)[C@@H]3OC(CN4C[C@@H]5C[C@H]4CO5)O[C@@H]3C3=C(C)[C@@H](OC(=O)[C@H](O)[C@@H](NC(=O)OC(C)(C)C)c4ccccc4)C[C@@](O)([C@@H](OC(=O)c4ccccc4)[C@H]21)C3(C)C (stereo partly drawn) [SHR-110008]
RTV X ± SD (human A549 NSCLC tumors [1]; 10 mg/kg i.v., d0, 4, 8): 10.81 ± 1.79
T/C (%) (human A549 NSCLC tumors [1]; 10 mg/kg i.v., d0, 4, 8): 48.8* %
T/C (%) (weighing method) (human A549 NSCLC tumors [1]; 10 mg/kg i.v., d0, 4, 8): 38.6* %
Weight of tumors (g) x ± SD (human A549 NSCLC tumors [1]; 10 mg/kg i.v., d0, 4, 8): 1.59 ± 0.57 g
TV (X ± SD, mm^3) d0 (human A549 NSCLC tumors [1]; 10 mg/kg i.v., d0, 4, 8): 129 ± 20 mm^3
TV (X ± SD, mm^3) dn (human A549 NSCLC tumors [1]; 10 mg/kg i.v., d0, 4, 8): 1383 ± 243 mm^3
RTV X ± SD (human A549 NSCLC tumors [1]; 16 mg/kg i.v., d0, 7): 4.41 ± 2.43
T/C (%) (human A549 NSCLC tumors [1]; 16 mg/kg i.v., d0, 7): 19.9* %
T/C (%) (weighing method) (human A549 NSCLC tumors [1]; 16 mg/kg i.v., d0, 7): 74.1* %
Weight of tumors (g) x ± SD (human A549 NSCLC tumors [1]; 16 mg/kg i.v., d0, 7): 0.67 ± 0.23 g
TV (X ± SD, mm^3) d0 (human A549 NSCLC tumors [1]; 16 mg/kg i.v., d0, 7): 143 ± 38 mm^3
TV (X ± SD, mm^3) dn (human A549 NSCLC tumors [1]; 16 mg/kg i.v., d0, 7): 612 ± 340 mm^3
therapeutic effect compared with Taxotere (human A549 NSCLC tumors [1]; [3]): better than that of Taxotere
toxicity compared with Taxotere (human A549 NSCLC tumors [1]; [3]): better than that of Taxotere

CC(=O)O[C@@]12CO[C@@H]1C[C@H](O)[C@@]1(C)C(=O)[C@H](O)C3=C(C)[C@@H](OC(=O)[C@H](O)[C@@H](NC(=O)OC(C)(C)C)c4ccccc4)C[C@@](O)([C@@H](OC(=O)c4ccccc4)[C@H]21)C3(C)C [Taxotere]
RTV X ± SD (human A549 NSCLC tumors [2]; 14th day): 11.2 ± 6.0
T/C (%) (human A549 NSCLC tumors [2]; 14th day, TRTV/CRTV×100): 78.3%
Body weight (g) d0 (human A549 NSCLC tumors [2]; d0: time of the first dosage): 20.7 g
TV (X ± SD, mm^3) d0 (human A549 NSCLC tumors [2]; d0: time of the first dosage): 156 ± 20 mm^3
Body weight (g) dn (human A549 NSCLC tumors [2]; [4]): 15.6 g
TV (X ± SD, mm^3) dn (human A549 NSCLC tumors [2]; [4]): 1679 ± 749 mm^3
RTV X ± SD (human A549 NSCLC tumors [1]; 12 mg/kg i.v., d0, 4, 8): 8.65 ± 5.83
T/C (%) (human A549 NSCLC tumors [1]; 12 mg/kg i.v., d0, 4, 8): 39.1* %
T/C (%) (weighing method) (human A549 NSCLC tumors [1]; 12 mg/kg i.v., d0, 4, 8): 51.7* %
Weight of tumors (g) x ± SD (human A549 NSCLC tumors [1]; 12 mg/kg i.v., d0, 4, 8): 1.25 ± 0.71 g
Body weight (g) d0 (human A549 NSCLC tumors [1]; 12 mg/kg i.v., d0, 4, 8): 17.6 g
TV (X ± SD, mm^3) d0 (human A549 NSCLC tumors [1]; 12 mg/kg i.v., d0, 4, 8): 140 ± 24 mm^3
Body weight (g) dn (human A549 NSCLC tumors [1]; 12 mg/kg i.v., d0, 4, 8): 14.1 g
TV (X ± SD, mm^3) dn (human A549 NSCLC tumors [1]; 12 mg/kg i.v., d0, 4, 8): 1149 ± 627 mm^3
RTV X ± SD (human A549 NSCLC tumors [1]; 19 mg/kg i.v., d0, 7): 7.13 ± 6.00
T/C (%) (human A549 NSCLC tumors [1]; 19 mg/kg i.v., d0, 7): 32.2* %
T/C (%) (weighing method) (human A549 NSCLC tumors [1]; 19 mg/kg i.v., d0, 7): 57.9* %
Weight of tumors (g) x ± SD (human A549 NSCLC tumors [1]; 19 mg/kg i.v., d0, 7): 1.09 ± 0.73 g
Body weight (g) d0 (human A549 NSCLC tumors [1]; 19 mg/kg i.v., d0, 7): 17.7 g
TV (X ± SD, mm^3) d0 (human A549 NSCLC tumors [1]; 19 mg/kg i.v., d0, 7): 134 ± 19 mm^3
Body weight (g) dn (human A549 NSCLC tumors [1]; 19 mg/kg i.v., d0, 7): 13.0 g
TV (X ± SD, mm^3) dn (human A549 NSCLC tumors [1]; 19 mg/kg i.v., d0, 7): 902 ± 736 mm^3
